Literature values, collected in patent US4410715A, “Process for the epoxidation of olefins using a group V metal co-catalyst I and a phenolic hydrocarbon co-catalyst II” (Exxon Research & Engineering Co., priority 1982, dated 1983).

settings: aqueous solution at 25° C.

First: COc1ccccc1O [2-methoxy-phenol, 2-methoxyphenol]
Second: Oc1ccccc1Cl [o-chlorophenol]
The pKa of the first is higher: 10.0 for the first, 8.5 for the second.

Going from Oc1cccc(Cl)c1 [m-chlorophenol] to Oc1ccc(Cl)cc1 [p-chlorophenol], the pKa rises from 8.8 to 9.2.

Going from Oc1c(Cl)cccc1Cl [2,6-DCP, 2,6-dichlorophenol] to Oc1ccc(Cl)cc1Cl [2,4-DCP, 2,4-dichlorophenol], the pKa rises from 6.8 to 7.7.

First: Cc1ccc(O)cc1 [p-cresol]
Second: CC(C)(C)c1ccc(O)c(C(C)(C)C)c1 [2,4-di-t-butyl phenol]
The pKa of the first is lower: 10.2 for the first, 11.6 for the second.

same assay, conditions: in place of a pKa value

For C1COCCO1 [1,4-dioxane, reference compound], the “basicity (footnote to pKa column, in words)” value is listed as “basic”.
